Assay results published in paper PMC9965906, “Discovery and Development Strategies for SARS-CoV-2 NSP3 Macrodomain Inhibitors” (Pathogens, 2023).
pIC50: −log10 of the molar value. “And” between values parts separate entries of the source, which are not always exact repeats. Identical values can stand only once. Like-named read-outs stand apart in the source and are kept apart here.

Molecular target: SARS-CoV-2 NSP3 Mac1 (Severe acute respiratory syndrome coronavirus 2, UniProt P0DTD1)
Test: biochemical
Format: binding
Conditions: for NSP3 Mac1 inhibition at 50 µM (%) / inhibition at 50 µM: FDA-approved compound library primary screen, single shot; for Hill slope: FDA-approved hit compounds, confirmatory HTRF assays; for inhibition at 125 µM: read-out: Inhibition at top concentration of 125 µM (%)
[1] = MIDAS compound library primary screen, 25 µM
[2] = MIDAS hit compounds and analogues
[3] = MIDAS hit compounds and analogues, top concentration 125 µM, 8-point 1:1 dilution, duplicate, read-out: IC50
[4] = MIDAS hit compounds and analogues, top concentration 125 µM, 8-point 1:1 dilution, duplicate

| Structure (SMILES) | inhibition at 125 µM [2] | IC50 in µM [4] | also measured |
| --- | --- | --- | --- |
| CO/N=C(\C(=O)N[C@@H]1C(=O)N2C(C(=O)[O-])=C(C[N+]3(C)CCCC3)CS[C@H]12)c1csc(N)n1.Cl [Cefepime hydrochloride, reference compound] | – | – | NSP3 Mac1 inhibition at 50 µM (%): 42.1% |
| CC(C)(O/N=C(\C(=O)N[C@@H]1C(=O)N2C(C(=O)[O-])=C(C[n+]3ccccc3)CS[C@H]12)c1csc(N)n1)C(=O)O [Ceftazidime, reference compound] | – | – | NSP3 Mac1 inhibition at 50 µM (%): 108%; inhibition at 50 µM: 108%; Hill slope: 1.38; pIC50 (IC50): 4.43 |
| Nc1nc(/C(=C/CC(=O)O)C(=O)N[C@@H]2C(=O)N3C(C(=O)O)=CCS[C@H]23)cs1 [Ceftibuten, reference compound] | – | – | inhibition at 50 µM: 71.6% |
| CC(=O)OCC1=C(C(=O)O)N2C(=O)[C@@H](NC(=O)CCC[C@@H](N)C(=O)O)[C@H]2SC1 [Cephalosporin C sodium, reference compound] | – | – | inhibition at 50 µM: 89.8% |
| COCCNC(=O)c1ccc(-c2ccnc3c2ccn3C)o1 [Compound 1, COCCNC(=O)c1ccc(o1)-c1ccnc2n(ccc12)C] | – | – | inhibition at 25 µM [1]: 73%; NSP3 Mac1 inhibition at 25 µM (%) (MIDAS compound library primary screen, 25 µM, listed as ARUK4007189-001-001, 25 µM): 73.1% |
| O=c1c2ccccc2[se]n1-c1ccccc1 [Ebselen, reference compound] | – | – | NSP3 Mac1 inhibition at 50 µM (%): 107%; inhibition at 50 µM: 108%; Hill slope: 4.94 |
| CCOc1ccc2nc3cc(N)ccc3c(N)c2c1 [Ethacridine lactate, reference compound] | – | – | inhibition at 50 µM: 49.3% |
| CCCCCCCC/C=C\CCCCCCCC(=O)O.NCCO [Ethanolamine oleate, reference compound] | – | – | NSP3 Mac1 inhibition at 50 µM (%): 56.1% |
| Oc1c(Cl)cc(Cl)c(Cl)c1Cc1c(O)c(Cl)cc(Cl)c1Cl [Hexachlorophene, reference compound] | – | – | inhibition at 50 µM: 85.5% |
| Nc1c(C(=O)NC2CC2)sc2nc(-c3ccccn3)ccc12 [IAL-MD0017, O=C(C1=C(N)C2=CC=C(C3=NC=CC=C3)N=C2S1)NC4CC4] | 79.6% | – | inhibition at 25 µM [1]: 58.7%; pIC50 [3]: 4.90 |
| CC(C)n1ncc2c(C(=O)NCc3cccs3)cc(-c3ccccc3)nc21 [IAL-MD0018, CC(C)N1N=CC=2C(=CC(=NC12)C=3C=CC=CC3)C(=O)NCC4=CC=CS4] | – | Not measurable | Inhibition at top concentration of 125 µM (%) [2]: Not measurable |
| CONC(=O)c1cc(-c2ccc(OC)cc2)nc2ccccc12 [IAL-MD0024, CONC(=O)C=1C=C(N=C2C=CC=CC12)C=3C=CC(OC)=CC3] | 60.3% | – | pIC50 [3]: 4.17 |
| CCn1ncc2c(C(=O)Nc3cccc(NC(C)=O)c3)cc(-c3ccccc3)nc21 [IAL-MD0025, CCN1N=CC=2C(=CC(=NC12)C=3C=CC=CC3)C(=O)NC=4C=CC=C(NC(=O)C)C4] | – | Not measurable | Inhibition at top concentration of 125 µM (%) [2]: Not measurable |
| CCn1ncc2c(C(=O)Nc3ncc(C)s3)cc(-c3cccs3)nc21 [IAL-MD0026, CCN1N=CC=2C(=CC(=NC12)C3=CC=CS3)C(=O)NC4=NC=C(C)S4] | 11.1% | Not measurable | – |
| COc1ccc(-c2cc(C(=O)O)c3c(C)cc(C)cc3n2)cc1 [IAL-MD0029, COC=1C=CC(=CC1)C=2C=C(C(=O)O)C=3C(C)=CC(C)=CC3N2] | 61.2% | – | pIC50 [3]: 4.12 |
| COc1ccc(-c2cc(C(=O)O)c3ccc(OC)cc3n2)cc1 [IAL-MD0030, COC=1C=CC(=CC1)C=2C=C(C(=O)O)C=3C=CC(OC)=CC3N2] | 44.7% | Not measurable | – |

| Structure (SMILES) | inhibition at 125 µM [2] | IC50 in µM [4] | also measured |
| --- | --- | --- | --- |
| COc1ccc(-c2cc(C(=O)O)c3cc(NC(C)=O)ccc3n2)cc1 [IAL-MD0031, COC=1C=CC(=CC1)C=2C=C(C(=O)O)C=3C=C(NC(=O)C)C=CC3N2] | 81.3% | – | inhibition at 25 µM [1]: 48%; pIC50 [3]: 4.72 and 4.71 |
| CC(=O)Nc1cccc(NC(=O)c2cc(-c3cccs3)nc3c2cnn3C(C)C)c1 [IAL-MD0032, CC(C)N1N=CC=2C(=CC(=NC12)C3=CC=CS3)C(=O)NC=4C=CC=C(NC(=O)C)C4] | 20.3% | Not measurable | – |
| COc1cccc(NC(=O)c2cc(-c3cccs3)nc3c2cnn3C(C)C)c1 [IAL-MD0033, COC=1C=CC=C(NC(=O)C=2C=C(N=C3N(N=CC23)C(C)C)C4=CC=CS4)C1] | 12.1% | Not measurable | – |
| COc1ccc(-c2cc(C(=O)Nc3cccc(OCC(N)=O)c3)c3ccccc3n2)cc1 [IAL-MD0034, COC=1C=CC(=CC1)C=2C=C(C(=O)NC=3C=CC=C(OCC(=O)N)C3)C=4C=CC=CC4N2] | 8.9% | Not measurable | – |
| CCC(C)NC(=O)c1cc(-c2ccc(OC)cc2)nc2ccccc12 (stereo not drawn) [IAL-MD0035, CCC(C)NC(=O)C=1C=C(N=C2C=CC=CC12)C=3C=CC(OC)=CC3] | 6.8% | Not measurable | – |
| COc1ccc(NC(=O)c2cc(-c3ccc(C)cc3)nc3onc(C)c23)cc1 [IAL-MD0037, COC=1C=CC(NC(=O)C=2C=C(N=C3ON=C(C)C23)C=4C=CC(C)=CC4)=CC1] | 9.3% | Not measurable | – |
| CCn1ncc2c(C(=O)Nc3cc(Cl)ccc3OC)cc(-c3cccs3)nc21 [IAL-MD0038, CCN1N=CC=2C(=CC(=NC12)C3=CC=CS3)C(=O)NC=4C=C(Cl)C=CC4OC] | 50.5% | Not measurable | – |
| CCn1ncc2c(C(=O)N3CCNC(=O)C3)cc(-c3cccs3)nc21 [IAL-MD0040, CCN1N=CC=2C(=CC(=NC12)C3=CC=CS3)C(=O)N4CCNC(=O)C4] | 81% | – | inhibition at 25 µM [1]: 51%; pIC50 [3]: 4.68 and 4.69 |
| CCn1ncc2c(C(=O)N(C)Cc3ccccc3C)cc(-c3cccs3)nc21 [IAL-MD0042, CCN1N=CC=2C(=CC(=NC12)C3=CC=CS3)C(=O)N(C)CC=4C=CC=CC4C] | 20.9% | Not measurable | – |
| CC(C)n1ncc2c(C(=O)N3CCNC(=O)C3)cc(-c3ccc4c(c3)OCCO4)nc21 [IAL-MD0044, CC(C)N1N=CC=2C(=CC(=NC12)C=3C=CC=4OCCOC4C3)C(=O)N5CCNC(=O)C5] | 30.2% | Not measurable | – |
| Cc1nn(C)c2nc(-c3ccccc3)cc(C(=O)N3CCN(C(=O)C4CC4)CC3)c12 [IAL-MD0045, CC1=NN(C)C=2N=C(C=C(C(=O)N3CCN(CC3)C(=O)C4CC4)C12)C=5C=CC=CC5] | 47.5% | Not measurable | – |
| Cc1nn(C)c2nc(-c3cccs3)cc(C(=O)NCc3ccccn3)c12 [IAL-MD0048, CC1=NN(C)C=2N=C(C=C(C(=O)NCC=3C=CC=CN3)C12)C4=CC=CS4] | 15.8% | Not measurable | – |
| CC(C)n1ncc2c(C(=O)N3CC(=O)Nc4ccccc43)cc(-c3cccs3)nc21 [IAL-MD0049, CC(C)N1N=CC=2C(=CC(=NC12)C3=CC=CS3)C(=O)N4CC(=O)NC=5C=CC=CC45] | 14.3% | Not measurable | – |
| CCn1ncc2c(C(=O)N3CCOCC3)cc(-c3ccccc3)nc21 [IAL-MD0050, CCN1N=CC=2C(=CC(=NC12)C=3C=CC=CC3)C(=O)N4CCOCC4] | – | Not measurable | Inhibition at top concentration of 125 µM (%) [2]: Not measurable |
| Cc1ccc(-c2cc(C(=O)N3CCOCC3)c3cnn(C(C)C)c3n2)s1 [IAL-MD0051, CC(C)N1N=CC=2C(=CC(=NC12)C3=CC=C(C)S3)C(=O)N4CCOCC4] | 59.8% | – | pIC50 [3]: 4.90; assay effects in dose-response titration (MIDAS hits and analogues, higher compound concentrations): secondary assay effects at higher concentrations |
